Read-outs that look alike come from different tables or passages of the source.
Key:
GLP-1R = GLP-1R (Homo sapiens, UniProt P43220); assay: GLP-1R activation: cAMP increase in CHO cells stably expressing GLP-1R; assay type: cell-based; conditions: read-out: EC50
[1] = Microsomal stability, human liver microsomes (predicted hepatic clearance); conditions: predicted from in vitro microsomal stability data
[2] = cAMP increase, CHO cells stably expressing GLP-1R, 10 point dose response, 30 minutes incubation

GLP-1R, sequence (P43220 24-463): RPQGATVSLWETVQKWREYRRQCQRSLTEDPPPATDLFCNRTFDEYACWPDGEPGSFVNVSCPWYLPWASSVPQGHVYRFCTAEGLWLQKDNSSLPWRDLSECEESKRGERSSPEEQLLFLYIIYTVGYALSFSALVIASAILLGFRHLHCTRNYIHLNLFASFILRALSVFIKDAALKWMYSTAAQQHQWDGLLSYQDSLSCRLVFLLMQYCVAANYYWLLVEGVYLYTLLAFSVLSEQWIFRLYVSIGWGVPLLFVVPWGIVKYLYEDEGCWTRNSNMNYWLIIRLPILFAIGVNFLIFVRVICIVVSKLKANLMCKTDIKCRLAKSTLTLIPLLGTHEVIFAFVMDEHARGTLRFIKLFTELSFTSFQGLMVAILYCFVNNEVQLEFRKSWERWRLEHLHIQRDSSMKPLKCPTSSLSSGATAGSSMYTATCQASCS

| Compound | EC50 (GLP-1R; [2]) [nM] | Predicted Hepatic Clearance (Pred. Cl.) [1] [L/h/kg] | EC50 (GLP-1R) [nM] |
| --- | --- | --- | --- |
| CCn1cncc1Cn1c(Cc2ccc(-c3cccc(OCc4ccc(C#N)cc4F)n3)cc2F)nc2ccc(C(=O)O)cc21 [Example 525, 2-(4-(6-((4-cyano-2-fluorobenzyl)oxy)pyridin-2-yl)-2-fluorobenzyl)-1-((1-ethyl-1H-imidazol-5-yl)methyl)-1H-benzo[d]imidazole-6-carboxylic acid] | 0.6 | 0.12 | – |
| COc1cc(C#N)ncc1COc1cccc(-c2cc(F)c(Cc3nc4ccc(C(=O)O)cc4n3C[C@@H]3CCO3)cc2F)n1 [Example 850, (S)-2-(4-(6-((6-Cyano-4-methoxypyridin-3-yl)methoxy)pyridin-2-yl)-2,5-difluorobenzyl)-1-(oxetan-2-ylmethyl)-1H-benzo[d]imidazole-6-carboxylic acid] | 0.23 | 0.20 | – |
| N#Cc1ccc(COc2cccc(-c3cc(F)c(Cc4nc5ccc(C(=O)O)cc5n4C[C@@H]4CCO4)cc3F)n2)c(F)c1 [Example 444, (S)-2-(4-(6-((4-cyano-2-fluorobenzyl)oxy)pyridin-2-yl)-2,5-difluorobenzyl)-1-(oxetan-2-ylmethyl)-1H-benzo[d]imidazole-6-carboxylic acid] | 0.25 | 0.248 | – |
| N#CCC1(Cn2c(Cc3ccc(-c4cccc(OCc5ccc(C#N)cc5F)n4)cc3F)nc3ccc(C(=O)O)nc32)CC1 [Example 600, 2-(4-(6-((4-cyano-2-fluorobenzyl)oxy)pyridin-2-yl)-2-fluorobenzyl)-3-((1-(cyanomethyl)cyclopropyl)methyl)-3H-imidazo[4,5-b]pyridine-5-carboxylic acid] | 0.1 | 0.4 | – |
| N#Cc1ccc(COc2cccc(-c3ccc(Cc4nc5c(F)cc(C(=O)O)cc5n4CC(O)CCO)c(F)c3)n2)c(F)c1 (centres unmarked) [Example 468, 2-[[4-[6-[(4-cyano-2-fluoro-phenyl)methoxy]-2-pyridyl]-2-fluoro-phenyl]methyl]-3-(2,4-dihydroxybutyl)-7-fluoro-benzimidazole-5-carboxylic acid] | 26.9 | 0.13 | – |
| O=C(O)c1cc(F)c2nc(Cc3cc(F)c(-c4ccc(F)c(OCc5ccc(C(F)(F)F)cc5F)n4)cc3F)n(C[C@@H]3CCO3)c2c1 [Example 765] | 0.51 | 0.11 | – |
| COC(Cn1c(Cc2ccc(-c3cccc(OCc4ccc(C#N)cc4F)n3)cc2F)nc2ccc(C(=O)O)cc21)C(N)=O (single isomer, unassigned) [Example 334, 1-(3-amino-2-methoxy-3-oxopropyl)-2-(4-(6-((4-cyano-2-fluorobenzyl)oxy)pyridin-2-yl)-2-fluorobenzyl)-1H-benzo[d]imidazole-6-carboxylic acid] | 7.11 | 0.2 | – |
| COCCNC(=O)C(Cn1c(Cc2ccc(-c3cccc(OCc4ccc(C#N)cc4F)n3)cc2F)nc2ccc(C(=O)O)cc21)OC (single isomer, unassigned) [Example 328, 2-(4-(6-((4-cyano-2-fluorobenzyl)oxy)pyridin-2-yl)-2-fluorobenzyl)-1-(2-methoxy-3-((2-methoxyethyl)amino)-3-oxopropyl)-1H-benzo[d]imidazole-6-carboxylic acid] | 26.5 | 0.66 | – |
| NC(=O)c1ccc(COc2cccc(-c3cc(F)c(Cc4nc5ccc(C(=O)O)cc5n4C[C@@H]4CCO4)cc3F)n2)cn1 [Example 826] | 0.28 | 0.22 | – |
| COCCn1c(Cc2ccc(-c3cccc(OCc4ccc(C#N)cc4OC)n3)cc2F)nc2ccc(C(=O)O)cc21 [Example 243, 2-(4-(6-((4-cyano-2-methoxybenzyl)oxy)pyridin-2-yl)-2-fluorobenzyl)-1-(2-methoxyethyl)-1H-benzo[d]imidazole-6-carboxylic acid] | 0.88 | 0.61 | – |
| COCCn1c(C2OCCc3cc(-c4cccc(OCc5ccc(C#N)cc5F)n4)ccc32)nc2ccc(C(=O)O)cc21 (single isomer, unassigned) [Example 49, 2-(6-(6-((4-cyano-2-fluorobenzyl)oxy)pyridin-2-yl)isochroman-1-yl)-1-(2-methoxyethyl)-1H-benzo[d]imidazole-6-carboxylic acid] | > 1000 | 0.78 | – |
| O=C(O)c1ccc2nc(Cc3cc(F)c(-c4cccc(OCc5ccc(C(F)F)cc5F)n4)cc3F)n(CC3(CF)CC3)c2c1 [Example 719] | 0.37 | 0.11 | – |
| N#CCC1(Cn2c(Cc3cc(F)c(-c4nc(OCc5ccc(C#N)cc5F)ncc4F)cc3F)nc3ccc(C(=O)O)nc32)CC1 [Example 129, 2-(4-(2-((4-cyano-2-fluorobenzyl)oxy)-5-fluoropyrimidin-4-yl)-2,5-difluorobenzyl)-3-((1-(cyanomethyl)cyclopropyl)methyl)-3H-imidazo[4,5-b]pyridine-5-carboxylic acid] | 0.7 | 0.19 | – |
| Cn1c(Cc2ccc(-c3cccc(OCc4ccc(C#N)cc4F)n3)cc2F)nc2ccc(C(=O)O)cc21 [Example 354, 2-(4-(6-((4-cyano-2-fluorobenzyl)oxy)pyridin-2-yl)-2-fluorobenzyl)-1-methyl-1H-benzo[d]imidazole-6-carboxylic acid] | 146 | 0.45 | – |
| N#Cc1ccc(COc2cccc(-c3cc(F)c(Cc4nc5ccc(C(=O)O)cc5n4[C@H]4CC[C@@H]4O)cc3F)n2)c(F)c1 [Example 705] | 73.2 | 0.80 | – |
| N#CCC1(Cn2c(Cc3cc(F)c(-c4ncc(F)c(OCc5ccc(C#N)cc5F)n4)cc3F)nc3ccc(C(=O)O)cc32)CC1 [Example 133, 2-(4-(4-((4-cyano-2-fluorobenzyl)oxy)-5-fluoropyrimidin-2-yl)-2,5-difluorobenzyl)-1-((1-(cyanomethyl)cyclopropyl)methyl)-1H-benzo[d]imidazole-6-carboxylic acid] | 0.26 | 0.335 | – |
| COCCn1c(Cc2ccc(-c3cccc(OCc4ccc(C#N)cc4F)n3)c(N)c2)nc2ccc(C(=O)O)cc21 [Example 259, 2-(3-amino-4-(6-((4-cyano-2-fluorobenzyl)oxy)pyridin-2-yl)benzyl)-1-(2-methoxyethyl)-1H-benzo[d]imidazole-6-carboxylic acid] | 66.9 | 0.2 | – |
| COCCn1c(Cc2cc(F)c(-c3ccc(F)c(OCc4ccc(C(F)F)cc4F)n3)cc2F)nc2ccc(C(=O)O)cc21 [Example 752] | 0.51 | 0.11 | – |
| COCCn1c(Cc2ccc(-c3cccc(OCc4ccc(C#N)cc4F)n3)cc2F)nc2ccc(C3(C(=O)O)CC3)cc21 [Example 210, 1-(2-(4-(6-((4-cyano-2-fluorobenzyl)oxy)pyridin-2-yl)-2-fluorobenzyl)-1-(2-methoxyethyl)-1H-benzo[d]imidazol-6-yl)cyclopropane-1-carboxylic acid] | ≥ 1000 | 0.265 | – |
| CCn1nccc1Cn1c(Cc2ccc(-c3cccc(OCc4ccc(C#N)cc4F)n3)c(F)c2)nc2ccc(C(=O)O)cc21 [Example 533, 2-(4-(6-((4-cyano-2-fluorobenzyl)oxy)pyridin-2-yl)-3-fluorobenzyl)-1-((1-ethyl-1H-pyrazol-5-yl)methyl)-1H-benzo[d]imidazole-6-carboxylic acid] | 47.1 | 0.6 | – |
| Cc1cnc(Cn2c(Cc3cc(F)c(-c4cccc(OCc5ccc(C#N)cc5F)n4)cc3F)nc3ccc(C(=O)O)cc32)o1 [Example 616] | 26.9 | 0.50 | – |
| N#Cc1ccc(COc2ccc(F)c(-c3cc(F)c(Cc4nc5c(F)cc(C(=O)O)cc5n4C[C@@H]4CCO4)cc3F)n2)cn1 [Example 852, (S)-2-(4-(6-((6-cyanopyridin-3-yl)methoxy)-3-fluoropyridin-2-yl)-2,5-difluorobenzyl)-4-fluoro-1-(oxetan-2-ylmethyl)-1H-benzo[d]imidazole-6-carboxylic acid] | 0.24 | 0.27 | – |
| COCCn1c(Cc2ccc(-c3cccc(OCc4ccc(Cl)cc4F)n3)cc2F)nc2ccc(C(=O)O)cc21 [Example 478, 2-(4-(6-((4-chloro-2-fluorobenzyl)oxy)pyridin-2-yl)-2-fluorobenzyl)-1-(2-methoxyethyl)-1H-benzo[d]imidazole-6-carboxylic acid] | 9.19 | 0.19 | – |
| COC1(Cn2c(Cc3cc(F)c(-c4cccc(OCc5ccc(C#N)cc5F)n4)cc3F)nc3ccc(C(=O)O)cc32)CN(C(C)=O)C1 [Example 687] | 181 | 0.52 | – |
| CC(=O)N1C[C@H](O)C[C@@H]1Cn1c(Cc2cc(F)c(-c3cccc(OCc4ccc(C#N)cc4F)n3)cc2F)nc2ccc(C(=O)O)cc21 [Example 848] | 4.08 | 0.17 | – |
| COCCn1c(Cc2ccc(-c3cccc(OCc4nccnc4OC)n3)cc2F)nc2ccc(C(=O)O)cc21 [Example 493, 2-(2-fluoro-4-(6-((3-methoxypyrazin-2-yl)methoxy)pyridin-2-yl)benzyl)-1-(2-methoxyethyl)-1H-benzo[d]imidazole-6-carboxylic acid] | 255 | 1.15 | – |
| N#Cc1ccc(COc2cccc(-c3cc(F)c(Cc4nc5ccc(C(=O)O)cc5n4CC45COCC4C5(F)F)cc3F)n2)c(F)c1 (centres unmarked) [Example 703] | 1.01 | 0.34 | – |
| CC(=O)N1C[C@H](F)C[C@@H]1Cn1c(Cc2cc(F)c(-c3cccc(OCc4ccc(C#N)cc4F)n3)cc2F)nc2ccc(C(=O)O)cc21 [Example 691] | – | 0.25 | 0.06 |
